Experiments:
late watergrass = assay: Test Example 2: herbicidal activity, application during weed generation under submerged conditions (Table 17, symbol A); format: in vivo, late watergrass (Echinochloa oryzicola); conditions: AAH 320 g/ha; application during weed generation, submerged conditions
Summary of the method: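 Herbicide emulsion, diluted with water to the chosen amount, is applied onto 4 cm floodwater over alluvial soil where the weeds were co-sown and raised at 25–30° C. Application timing: 1–2 leaves. Assessment: three weeks afterwards.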

southern crabgrass = assay: Test Example 4: herbicidal effect by soil treatment (Table 19, symbol F); format: in vivo, southern crabgrass (Digitaria ciliaris); conditions: AAH 320 g/ha
Summary of the method: (§1)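 Applied as a water-diluted emulsion, the compound was sprayed onto soil covering newly sown seeds. Evaluation came three weeks after application, in a greenhouse held at 25° C. to 30° C.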

lambsquarters = assay: Test Example 4: herbicidal effect by soil treatment (Table 19, symbol O); format: in vivo, lambsquarters (Chenopodium album); conditions: AAH 320 g/ha
Summary of the method: as §1

redroot pigweed [1] = assay: Test Example 4: herbicidal effect by soil treatment (Table 19, symbol N); format: in vivo, redroot pigweed (Amaranthus retroflexus); conditions: AAH 320 g/ha
Summary of the method: as §1

chickweed = assay: Test Example 4: herbicidal effect by soil treatment (Table 19, symbol P); format: in vivo, common chickweed (Stellaria media); conditions: AAH 320 g/ha
Summary of the method: as §1

velvetleaf = assay: Test Example 5: herbicidal effect by foliage application, plastic box (Table 20, symbol M); format: in vivo, velvetleaf (Abutilon theophrasti); conditions: foliage application, AAH 320 g/ha, three weeks after application
Summary of the method: (§2)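 Sow seeds spot-wise in sterilized diluvial soil; cover with ~1.5 cm soil. Grow 14 days in greenhouse, 25° C. to 30° C. Spray foliage with emulsion diluted to predetermined amount. Rate effect after 3 weeks.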

barnyard grass [2] = assay: Test Example 3: herbicidal effect by foliage application, Wagner pot (Table 18, symbol H); format: in vivo, barnyard grass (Echinochloa crus-galli); conditions: 320 g/ha
Summary of the method: (§3)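 Plants were sown in alluvial soil held under 0.1–0.5 cm standing water and grown 14 days in a greenhouse at 25–30 °C. An emulsifiable formulation, water-diluted to the set dose, was then sprayed onto the foliage, and effects were scored three weeks later using previously defined criteria.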

barnyard grass [3] = assay: Test Example 5: herbicidal effect by foliage application, plastic box (Table 20, symbol H); format: in vivo, barnyard grass (Echinochloa crus-galli); conditions: foliage application, AAH 320 g/ha, three weeks after application
Summary of the method: as §2

persian speedwell = assay: Test Example 5: herbicidal effect by foliage application, plastic box (Table 20, symbol R); format: in vivo, Persian speedwell (Veronica persica); conditions: foliage application, AAH 320 g/ha, three weeks after application
Summary of the method: as §2

wild oat = assay: Test Example 5: herbicidal effect by foliage application, plastic box (Table 20, symbol I); format: in vivo, wild oat (Avena fatua); conditions: foliage application, AAH 320 g/ha, three weeks after application
Summary of the method: as §2

Italian ryegrass = assay: Test Example 5: herbicidal effect by foliage application, plastic box (Table 20, symbol K); format: in vivo, Italian ryegrass (Lolium multiflorum); conditions: foliage application, AAH 320 g/ha, three weeks after application
Summary of the method: as §2

blackgrass [4] = assay: Test Example 4: herbicidal effect by soil treatment (Table 19, symbol J); format: in vivo, blackgrass (Alopecurus myosuroides); conditions: AAH 320 g/ha
Summary of the method: as §1

Chinese sprangletop = assay: Test Example 3: herbicidal effect by foliage application, Wagner pot (Table 18, symbol D); format: in vivo, chinese sprangletop (Leptochloa chinensis); conditions: 320 g/ha
Summary of the method: as §3

barnyard grass [5] = assay: Test Example 4: herbicidal effect by soil treatment (Table 19, symbol H); format: in vivo, barnyard grass (Echinochloa crus-galli); conditions: AAH 320 g/ha
Summary of the method: as §1

blackgrass [6] = assay: Test Example 5: herbicidal effect by foliage application, plastic box (Table 20, symbol J); format: in vivo, blackgrass (Alopecurus myosuroides); conditions: foliage application, AAH 320 g/ha, three weeks after application
Summary of the method: as §2

redroot pigweed [7] = assay: Test Example 5: herbicidal effect by foliage application, plastic box (Table 20, symbol N); format: in vivo, redroot pigweed (Amaranthus retroflexus); conditions: foliage application, AAH 320 g/ha, three weeks after application
Summary of the method: as §2

SMILES	herbicidal effect rating, A: late watergrass (late watergrass)	F: southern crabgrass, herbicidal effect rating (southern crabgrass)	O: lambsquarters, herbicidal effect rating (lambsquarters)	N: redroot pigweed, herbicidal effect rating (redroot pigweed [1])	P: chickweed, herbicidal effect rating (chickweed)	M: velvetleaf, herbicidal effect (velvetleaf)	herbicidal effect on H (barnyard grass), rating 0-5 (barnyard grass [2])	H: barnyard grass, herbicidal effect (barnyard grass [3])	R: persian speedwell, herbicidal effect (persian speedwell)	I: wild oat, herbicidal effect (wild oat)	K: Italian ryegrass, herbicidal effect (Italian ryegrass)	J: blackgrass, herbicidal effect rating (blackgrass [4])	herbicidal effect on D (Chinese sprangletop), rating 0-5 (Chinese sprangletop)	H: barnyard grass, herbicidal effect rating (barnyard grass [5])	J: blackgrass, herbicidal effect (blackgrass [6])	N: redroot pigweed, herbicidal effect (redroot pigweed [7])
COCc1ccc(-c2sc3ccccc3c2-c2c(O)c(C)nn(C)c2=O)cc1 [1-131]	0 (Herbicidal rate of 5% or less (almost no effect))	4 (Herbicidal rate of 70% or more and less than 90%)	5 (Herbicidal rate of 90% or more (almost completely withered))	5 (Herbicidal rate of 90% or more (almost completely withered))	5 (Herbicidal rate of 90% or more (almost completely withered))	5 (Herbicidal rate of 90% or more (almost completely withered))	5 (Herbicidal rate of 90% or more (almost completely withered))	5 (Herbicidal rate of 90% or more (almost completely withered))	5 (Herbicidal rate of 90% or more (almost completely withered))	4 (Herbicidal rate of 70% or more and less than 90%)	5 (Herbicidal rate of 90% or more (almost completely withered))	1 (Herbicidal rate of 5% or more and less than 20%)	4 (Herbicidal rate of 70% or more and less than 90%)	5 (Herbicidal rate of 90% or more (almost completely withered))	4 (Herbicidal rate of 70% or more and less than 90%)	5 (Herbicidal rate of 90% or more (almost completely withered))
Cc1nn(C)c(=O)c(-c2c(-c3ccc(OCc4ccccc4)cc3)sc3ccccc23)c1O [1-133]	1 (Herbicidal rate of 5% or more and less than 20%)	2 (Herbicidal rate of 20% or more and less than 40%)	1 (Herbicidal rate of 5% or more and less than 20%)	5 (Herbicidal rate of 90% or more (almost completely withered))	0 (Herbicidal rate of 5% or less (almost no effect))	0 (Herbicidal rate of 5% or less (almost no effect))	5 (Herbicidal rate of 90% or more (almost completely withered))	5 (Herbicidal rate of 90% or more (almost completely withered))	5 (Herbicidal rate of 90% or more (almost completely withered))	0 (Herbicidal rate of 5% or less (almost no effect))	1 (Herbicidal rate of 5% or more and less than 20%)	0 (Herbicidal rate of 5% or less (almost no effect))	3 (Herbicidal rate of 40% or more and less than 70%)	2 (Herbicidal rate of 20% or more and less than 40%)	1 (Herbicidal rate of 5% or more and less than 20%)	5 (Herbicidal rate of 90% or more (almost completely withered))
Cc1nn(C)c(=O)c(-c2c(-c3ccc(OCC4CC4(F)F)cc3)sc3ccccc23)c1O (centres unmarked) [1-138]	0 (Herbicidal rate of 5% or less (almost no effect))	0 (Herbicidal rate of 5% or less (almost no effect))	5 (Herbicidal rate of 90% or more (almost completely withered))	5 (Herbicidal rate of 90% or more (almost completely withered))	4 (Herbicidal rate of 70% or more and less than 90%)	4 (Herbicidal rate of 70% or more and less than 90%)	5 (Herbicidal rate of 90% or more (almost completely withered))	5 (Herbicidal rate of 90% or more (almost completely withered))	5 (Herbicidal rate of 90% or more (almost completely withered))	0 (Herbicidal rate of 5% or less (almost no effect))	5 (Herbicidal rate of 90% or more (almost completely withered))	3 (Herbicidal rate of 40% or more and less than 70%)	3 (Herbicidal rate of 40% or more and less than 70%)	5 (Herbicidal rate of 90% or more (almost completely withered))	5 (Herbicidal rate of 90% or more (almost completely withered))	3 (Herbicidal rate of 40% or more and less than 70%)
CSCCOc1ccc(-c2sc3ccccc3c2-c2c(O)c(C)nn(C)c2=O)cc1 [1-141]	0 (Herbicidal rate of 5% or less (almost no effect))	4 (Herbicidal rate of 70% or more and less than 90%)	5 (Herbicidal rate of 90% or more (almost completely withered))	5 (Herbicidal rate of 90% or more (almost completely withered))	4 (Herbicidal rate of 70% or more and less than 90%)	4 (Herbicidal rate of 70% or more and less than 90%)	5 (Herbicidal rate of 90% or more (almost completely withered))	5 (Herbicidal rate of 90% or more (almost completely withered))	5 (Herbicidal rate of 90% or more (almost completely withered))	5 (Herbicidal rate of 90% or more (almost completely withered))	5 (Herbicidal rate of 90% or more (almost completely withered))	0 (Herbicidal rate of 5% or less (almost no effect))	3 (Herbicidal rate of 40% or more and less than 70%)	4 (Herbicidal rate of 70% or more and less than 90%)	5 (Herbicidal rate of 90% or more (almost completely withered))	5 (Herbicidal rate of 90% or more (almost completely withered))
Cc1nn(C)c(=O)c(-c2c(-c3ccc(OCC4CC4)cc3)sc3ccccc23)c1O [1-142]	0 (Herbicidal rate of 5% or less (almost no effect))	0 (Herbicidal rate of 5% or less (almost no effect))	5 (Herbicidal rate of 90% or more (almost completely withered))	4 (Herbicidal rate of 70% or more and less than 90%)	2 (Herbicidal rate of 20% or more and less than 40%)	1 (Herbicidal rate of 5% or more and less than 20%)	3 (Herbicidal rate of 40% or more and less than 70%)	3 (Herbicidal rate of 40% or more and less than 70%)	5 (Herbicidal rate of 90% or more (almost completely withered))	0 (Herbicidal rate of 5% or less (almost no effect))	0 (Herbicidal rate of 5% or less (almost no effect))	0 (Herbicidal rate of 5% or less (almost no effect))	1 (Herbicidal rate of 5% or more and less than 20%)	3 (Herbicidal rate of 40% or more and less than 70%)	0 (Herbicidal rate of 5% or less (almost no effect))	2 (Herbicidal rate of 20% or more and less than 40%)

From patent publication US20230085307A1, “PYRIDAZINONE COMPOUND AND HERBICIDE” (NISSAN CHEMICAL CORPORATION, priority 2019, published 2023)
